Measurements reported in ChEMBL document CHEMBL1123132, “1-Benzylcyclopropylamine and 1-(phenylcyclopropyl)methylamine: an inactivator and a substrate of monoamine oxidase” (J Med Chem, 1985).

Tests used:
Type in all cases: protein assay
[1] = molecular target: T1, Monoamine oxidase (Homo sapiens, UniProt P21397+P27338); experiment: Evaluated for (Ki value) inactivation of Monoamine oxidase at saturation.
T1 sequence (P21397 whole entry): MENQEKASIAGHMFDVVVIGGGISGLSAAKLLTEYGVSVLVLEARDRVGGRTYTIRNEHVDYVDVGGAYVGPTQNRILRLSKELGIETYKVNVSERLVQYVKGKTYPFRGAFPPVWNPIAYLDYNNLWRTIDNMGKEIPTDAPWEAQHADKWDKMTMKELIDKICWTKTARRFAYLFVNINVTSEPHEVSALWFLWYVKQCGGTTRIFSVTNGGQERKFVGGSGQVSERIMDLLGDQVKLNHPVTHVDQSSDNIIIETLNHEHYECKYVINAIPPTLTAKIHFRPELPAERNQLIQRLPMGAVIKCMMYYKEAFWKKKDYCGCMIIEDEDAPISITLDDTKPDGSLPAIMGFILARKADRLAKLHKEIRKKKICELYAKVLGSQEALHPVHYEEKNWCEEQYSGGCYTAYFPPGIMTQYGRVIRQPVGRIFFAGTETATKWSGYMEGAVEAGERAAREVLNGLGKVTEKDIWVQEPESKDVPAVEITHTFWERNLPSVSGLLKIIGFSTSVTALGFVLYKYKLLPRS
T1 sequence (P27338 whole entry): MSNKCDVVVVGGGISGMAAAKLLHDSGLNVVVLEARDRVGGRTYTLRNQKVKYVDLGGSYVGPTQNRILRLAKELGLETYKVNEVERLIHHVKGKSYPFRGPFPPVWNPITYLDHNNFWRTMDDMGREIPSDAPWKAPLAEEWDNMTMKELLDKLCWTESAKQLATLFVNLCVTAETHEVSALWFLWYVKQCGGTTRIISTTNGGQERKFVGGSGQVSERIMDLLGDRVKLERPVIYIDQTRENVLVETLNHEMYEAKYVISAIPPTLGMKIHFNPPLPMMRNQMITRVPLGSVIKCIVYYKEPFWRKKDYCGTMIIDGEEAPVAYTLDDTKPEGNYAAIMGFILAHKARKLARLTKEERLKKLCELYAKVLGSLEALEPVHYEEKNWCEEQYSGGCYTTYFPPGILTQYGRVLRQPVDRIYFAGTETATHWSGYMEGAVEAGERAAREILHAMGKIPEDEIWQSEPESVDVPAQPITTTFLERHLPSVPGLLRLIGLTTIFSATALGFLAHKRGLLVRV

[2] = molecular target: T1, Monoamine oxidase; experiment: Evaluated for (Ki value) in competition with oxidation of benzylamine.
[3] = molecular target: T1, Monoamine oxidase; experiment: Kinetic parameter (Kcat value) was determined
[4] = molecular target: T1, Monoamine oxidase; experiment: Kinetic parameter (Km value) was determined

Ki [1] | Ki [2] | k cat [3] | Km [4] | SMILES
480 µM | 51 µM |  |  | NC1(Cc2ccccc2)CC1
 | 50 µM | 1.52 s⁻¹ | 40 µM | NCC1(c2ccccc2)CC1
